Experimental data reported in article PMC7405012, “Detection of Chaetomium globosum, Ch. cochliodes and Ch. rectangulare during the Diversity Tracking of Mycotoxin-Producing Chaetomium-like Isolates Obtained in Buildings in Finland” (Toxins, 2020).
In brackets after ≈: the same amount, converted by molar mass. Where two headings read alike, the source gives them in different places.

Columns and labels:
[1] = system: porcine kidney cells (PK-15); experiment: cells; type: cell-based
[2] = system: murine neuroblastoma cells (MNA); experiment: Inhibition of cell proliferation (ICP) assay, MNA; type: cell-based
Description: The plate-grown biomass of the fungal pure cultures (100–300 mg) was extracted with ethanol as described earlier. The toxicity assays, namely BSMI assay after exposure for 30 min (rapid inhibition) and for one day (slow inhibition), SMID assay and ICP assay, were all described previously. The toxicity assays involving the ethanol extracts obtained from pure fungal cultures were performed using porcine cells (sperms and somatic cell lines) as indicators according to methods described before. The calculation of EC50—the half maximal effective concentration for the ethanol-dry substances and pure mycotoxins in the BSMI, SMID and ICP assays—were described previously.
The continuous cell line PK-15 (porcine kidney cells) and a malignant cell line (MNA cell line) provided by EVIRA (Helsinki, Finland) were used in the ICP assay. 5,5′,6,6′-tetrachloro-1,1′,3,3′-tetraethyl-benzimidazolylcarbocyanine iodide (JC-1, 3520-43-2), PI (25535-16-4) and calcein-AM (148504-34-1) were obtained from Invitrogen (Carlsbad, CA, USA). Alamethicin A4665 (T. arundinaceum) (CAS 27061-78-5), a mixture of alamethicin F50 peptaibols (MW 1962, 1976, 1976 and 1990), chaetoglobosin A (CAS 50335-03-0), sterigmatocystin (CAS 10048-13-5) and ochratoxin A (CAS 303-47-9) were obtained from Sigma-Aldrich (St. Louis, MO, USA). Malt extract and tryptic soy agar were obtained from Scharlab (Barcelona, Spain). The other chemicals were of analytical grade and were purchased from local suppliers. The biocides and the wetting agent Genapol-080 were purchased from Sigma-Aldrich Finland. The fungicide Boracol 10Rh was obtained from a local supplier. The selected biocides were Borax (600 µg mL^−1; sodium tetraborate, CAS: 1330-43-4), Boracol 10Rh containing disodium octaborate tetrahydrate (CAS: 12280-03-04) and didecyldimethylammonium chloride [CAS: 7173-51-5]), PHMB (CAS: 27083-27-8), phenoxyethanol (CAS: 122-99-6), chloramine, triclosan (5-Chloro-2-(2,4-dichlorophenoxy)phenol, CAS: 3380-34-5) and the wetting agent Genapol X-080 (CAS: 9043-30-5). Genapol X-080 and the biocides were purchased from Sigma-Aldrich, except for Boracol 10Rh, which was purchased from a local supplier.

Ch. cochliodes OT7b = experiment: Resistance to biocides: ascospore germination; type: cell-based; details: strain OT7b, indoor Ch. cochliodes
Description: (§1) The toxicity of biocides and chemicals towards the indoor Chaetomium-like isolates and the reference indoor strains of the genera Aspergillus, Paecilomyces, Penicillium and Trichoderma was assessed in parallel with the six parameters presented in the Supplementary Materials: (1) germ tube assay (Figure S3); (2) estimation of turbidity (Figure S4); (3) visual emission of fluorescence (excitation at 360 nm); (4) visual resporulation of conidia; (5) inhibition of glucose consumption; and (6) resazurin reduction. All assays were performed in malt extract broth (12 g L^−1 malt extract, 7.2 µmol mL^−1 glucose, pH 5.5; Scharlab, Barcelona, Spain) in 96-well microtiter plates as described for the ICP assay.
(§2) The assays measuring inhibition of germination of conidia were done with spore suspensions of 1–2 × 10^6 fungal spores mL−^1. The tests were performed in malt extract broth (Oxoid, Hampshire United Kingdom) 12 g in 1 L, pH 5.5, glucose 7.1 mmol L^−1, and performed on microtiter plates as described by Bencsik et al. for the ICP assay. The germ tube germination is visualized in Figure S3, and the tests estimating turbidity and emission of fluorescence provoked by the germinated and metabolically active conidia and C. globosum ascospores are visualized in Figures S4 and S5. Examples of the tests estimating fluorescence emission, turbidity and re-sporulation of conidia and ascospores are compared in Figure S5. The difference of the endpoints measured with the different assays was between […]. The resazurin reduction assays (Figure S6) were performed as described for the ICP assay, except that the microtiter plates were visually inspected for the change of the blue/violet color of resazurin (indicating inhibition of germination of the exposed conidia) to the […] (indicating metabolic activity and germination of the exposed conidia).
(§3) The formation of germ tubes was inspected by a phase-contrast microscope (Olympus CKX41, Tokyo, Japan; magnification 400×) and an image recording software (Cellsense® standard version 11.0.06, Olympus Soft Imaging Solutions GmbH, Münster, Germany, 2012) after 1 and 2 days of incubation at 28 °C. The EC50 corresponded to the inhibition of 50% (estimated as the concentration between EC0 and EC100) of the conidia compared to the ethanol control (the growth medium containing 1% of ethanol). The tests were run in triplicate and calibrated with triclosan (CAS: 3380-34-5; Sigma Chemical Co., St. Louis, MO, USA) giving a mean SD of ±<20%.

Ch. cochliodes OT7 = experiment: Resistance to biocides: ascospore germination; type: cell-based; details: strain OT7, indoor Ch. cochliodes
Description: as §1, §2, §3

Ch. rectangulare M015 = experiment: Resistance to biocides: ascospore germination; type: cell-based; details: strain M015, indoor Ch. rectangulare
Description: as §1, §2, §3

[3] = system: Aspergillus section Nigri Asp 32; experiment: Resistance to biocides: conidial germination; type: cell-based; details: strain Asp 32, indoor Aspergillus section Nigri
Description: as §1, §2, §3

[4] = system: Outdoor T. atroviride SZMC 12323; experiment: Resistance to biocides: conidial germination; type: cell-based, Trichoderma atroviride; details: strain SZMC 12323, outdoor T. atroviride
Description: as §1, §2, §3

[5] = system: Outdoor T. atroviride SZMC 12474; experiment: Resistance to biocides: conidial germination; type: cell-based, Trichoderma atroviride; details: strain SZMC 12474, outdoor T. atroviride
Description: as §1, §2, §3

[6] = system: Outdoor T. atroviride SZMC 12516; experiment: Resistance to biocides: conidial germination; type: cell-based, Trichoderma atroviride; details: strain SZMC 12516, outdoor T. atroviride
Description: as §1, §2, §3

[7] = system: Outdoor T. atroviride SZMC 12541; experiment: Resistance to biocides: conidial germination; type: cell-based, Trichoderma atroviride; details: strain SZMC 12541, outdoor T. atroviride
Description: as §1, §2, §3

[8] = system: Outdoor T. atroviride SZMC 1723; experiment: Resistance to biocides: conidial germination; type: cell-based, Trichoderma atroviride; details: strain SZMC 1723, outdoor T. atroviride
Description: as §1, §2, §3

[9] = system: Outdoor T. atroviride SZMC 207080; experiment: Resistance to biocides: conidial germination; type: cell-based, Trichoderma atroviride; details: strain SZMC 207080, outdoor T. atroviride
Description: as §1, §2, §3

[10] = Sus scrofa, mammalian cell line PK-15 (ICT assay), read-out: EC50
[11] = Mus musculus, Neuroblastoma cell, mammalian cell line MNA (ICT assay), read-out: EC50
[12] = Trichoderma atroviride, read-out: EC50
[13] = mammalian cell line PK-15 (ICT assay)
[14] = mammalian cell line MNA (ICT assay)

`C/C1=C\[C@@H](C)C/C=C/[C@H]2[C@@H]3O[C@]3(C)[C@@H](C)[C@H]3[C@H](Cc4c[nH]c5ccccc45)NC(=O)[C@]32C(=O)/C=C/C(=O)[C@@H]1O` [Chaetoglobosin A, chaetoglobosin A] was tested, and the EC50 ([1]; Sus scrofa, 48 h, PK-15, 2 days, 37 °C, read-out: EC50 ICP PK-15 2 days) was 3 µg/mL (≈ 5.67 µM) and the EC50 ([2]; Mus musculus, Neuroblastoma cell, 48 h, MNA, 2 days, 37 °C, read-out: EC50 ICP MNA 2 days) was 1 µg/mL (≈ 1.89 µM).

Molecule `Oc1cc(Cl)ccc1Oc1ccc(Cl)cc1Cl` [Triclosan, 5-Chloro-2-(2,4-dichlorophenoxy)phenol] has an EC50 [1, 10] of 8 to 15 µg/mL (≈ 27.6 to 51.8 µM), an EC50 [2, 11] of 4 to 8 µg/mL (≈ 13.8 to 27.6 µM) and an EC50 (Ch. cochliodes OT7b; read-out: EC50) of 4 µg/mL (≈ 13.8 µM). It also gave an EC50 (Ch. cochliodes OT7; read-out: EC50) of 4 µg/mL (≈ 13.8 µM), an EC50 (Ch. rectangulare M015; read-out: EC50) of 2 µg/mL (≈ 6.91 µM) and an EC50 ([3]; read-out: EC50) of 16 µg/mL (≈ 55.3 µM). For the same molecule, the EC50 [4, 12] was 30 µg/mL (≈ 104 µM), the EC50 [5, 12] was 8 µg/mL (≈ 27.6 µM) and the EC50 [6, 12] was 16 µg/mL (≈ 55.3 µM). The EC50 [7, 12] was 16 µg/mL (≈ 55.3 µM), the EC50 [8, 12] was 16 µg/mL (≈ 55.3 µM) and the EC50 [9, 12] was 8 µg/mL (≈ 27.6 µM).

Work on `NCl` [Chloramine, chloramine] yielded an EC50 [1, 13] of 150 µg/mL (≈ 2910 µM), an EC50 [2, 14] of 80 µg/mL (≈ 1550 µM) and an EC50 (Ch. rectangulare M015) of 1200 µg/mL (≈ 23300 µM). It also gave an EC50 [4] of 2500 µg/mL (≈ 48600 µM), an EC50 [5] of 2500 µg/mL (≈ 48600 µM) and an EC50 [6] of 2500 µg/mL (≈ 48600 µM). For the same molecule, the EC50 [7] was 2500 µg/mL (≈ 48600 µM), the EC50 [8] was 2500 µg/mL (≈ 48600 µM) and the EC50 [9] was 2500 µg/mL (≈ 48600 µM).

`OCCOc1ccccc1` [Phenoxy-ethanol, phenoxyethanol] gave an EC50 [1, 10] of 1500 µg/mL (≈ 10900 µM), an EC50 [2, 11] of 400 µg/mL (≈ 2900 µM) and an EC50 (Ch. cochliodes OT7b; read-out: EC50) of 3000 µg/mL (≈ 21700 µM). The EC50 (Ch. cochliodes OT7; read-out: EC50) was 3000 µg/mL (≈ 21700 µM), the EC50 (Ch. rectangulare M015; read-out: EC50) was 1500 µg/mL (≈ 10900 µM) and the EC50 ([3]; read-out: EC50) was 3000 µg/mL (≈ 21700 µM). It also gave an EC50 [4, 12] of 1500 µg/mL (≈ 10900 µM), an EC50 [5, 12] of 3000 µg/mL (≈ 21700 µM) and an EC50 [6, 12] of 1500 µg/mL (≈ 10900 µM). The EC50 [7, 12] was 1500 µg/mL (≈ 10900 µM), the EC50 [8, 12] was 1500 µg/mL (≈ 10900 µM) and the EC50 [9, 12] was 3000 µg/mL (≈ 21700 µM).

For `O=BOB(O)OB(O)OB=O` [Borax, sodium tetraborate], the EC50 [1, 10] was 600 µg/mL, the EC50 [2, 11] was 150 µg/mL and the EC50 (Ch. cochliodes OT7b; read-out: EC50) was 750 µg/mL. The EC50 (Ch. cochliodes OT7; read-out: EC50) was 750 µg/mL, the EC50 (Ch. rectangulare M015; read-out: EC50) was 5000 µg/mL and the EC50 ([3]; read-out: EC50) was at least 5000 µg/mL. For the same molecule, the EC50 [4, 12] was 1200 µg/mL, the EC50 [5, 12] was 2500 µg/mL and the EC50 [6, 12] was 2500 µg/mL. The EC50 [7, 12] was 1200 µg/mL, the EC50 [8, 12] was 1200 µg/mL and the EC50 [9, 12] was 1200 µg/mL.

With “polyhexamethylene biguanide hydrochloride [PHMB]” the EC50 [1, 13] was 15 µg/mL, the EC50 [2, 14] was 4 µg/mL and the EC50 (Ch. cochliodes OT7b) was 8 µg/mL. It also gave an EC50 (Ch. cochliodes OT7) of 8 µg/mL, an EC50 (Ch. rectangulare M015) of 4 µg/mL and an EC50 [3] of 60 µg/mL. It also gave an EC50 [4] of 8 µg/mL, an EC50 [5] of 4 µg/mL and an EC50 [6] of 30 µg/mL. It also gave an EC50 [7] of 2 µg/mL, an EC50 [8] of 8 µg/mL and an EC50 [9] of 8 µg/mL.
